In publication PMC9586930, “Molecular insights into the distinct signaling duration for the peptide-induced PTH1R activation” (Nature Communications, 2022):
Changes are numbered by the printed parent chain.

Experiments:
Details in all cases: for ΔpEC50±SEM: relative to WT, n = 3 in triplicate; for ΔpEC50±SEM / Span±SEM: mean ± SEM; for Span±SEM: window between maximal response (Emax) and vehicle, n = 3
[1] = target: T1, PTH1R K360A mutant (Homo sapiens, UniProt Q03431, K360A); test: cAMP accumulation assay (GloSensor), PTH1R K360A; assay type: cell-based
T1 construct: a flag-tag was fused to the N terminal of full-length PTH1R (WT or mutant); expressed in transfected cells; host or cells: HEK293T
T1 sequence (Q03431 27-593 K360A): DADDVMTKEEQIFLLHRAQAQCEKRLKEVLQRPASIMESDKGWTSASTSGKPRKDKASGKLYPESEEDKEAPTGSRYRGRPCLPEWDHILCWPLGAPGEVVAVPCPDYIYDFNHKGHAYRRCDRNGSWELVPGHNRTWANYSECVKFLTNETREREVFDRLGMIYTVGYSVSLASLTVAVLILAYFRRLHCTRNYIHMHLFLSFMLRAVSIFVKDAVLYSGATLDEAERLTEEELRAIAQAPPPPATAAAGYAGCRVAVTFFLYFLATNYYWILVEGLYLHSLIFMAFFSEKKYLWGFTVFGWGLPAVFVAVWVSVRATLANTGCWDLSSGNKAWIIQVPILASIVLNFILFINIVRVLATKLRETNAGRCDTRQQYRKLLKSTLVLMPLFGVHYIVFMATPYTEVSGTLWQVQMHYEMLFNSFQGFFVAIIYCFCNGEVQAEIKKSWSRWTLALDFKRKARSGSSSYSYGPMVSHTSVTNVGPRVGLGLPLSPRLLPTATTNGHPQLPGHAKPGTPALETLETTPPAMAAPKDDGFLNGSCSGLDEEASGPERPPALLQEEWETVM
Procedure: (§1) Human embryonic kidney 293 T (HEK293T, ATCC: CRL-1573) cells were transfected with a plasmid mixture consisting of pcDNA3.1-flag-PTH1R (WT or mutants) and the cAMP biosensor GloSensor-22F (Promega) at a ratio of 2:1 (see Supplementary Table 7 for a list of primers used in this study). After 24 h, transfected cells were plated onto a 384-well plate, which was treated with cell adherent reagent (Applygen) in advance. After another 12 h, cells were treated with Hank’s balanced salt solution for starvation and then incubated in CO2-independent media containing 4% GloSensor cAMP Reagent (Promega) at a volume of 5 μl per well and incubated for 20 min at RT before measurements for baseline luminescence (Spark Multimode microplate reader, TECAN). Next, test ligands were added at different concentrations from 10^−6 to 10^−13 M before second measurement. Finally, data were normalized to 100% of the maximal PTH (1-34) response for WT PTH1R using a sigmoidal dose-response in GraphPad Prism.
(§2) Statistical analyses were performed on at least three individual datasets and analysed using GraphPad Prism software. Bars represent differences in the calculated agonist potency (pEC50) and maximum agonist response (Emax) for each mutant relative to the WT receptor. Data are mean± s.e.m. from at least three independent experiments, performed in triplicates. ns, not significant, ^nsP > 0.01; ^*P < 0.01; ^**P < 0.001; ^***P < 0.0001 (one-way analysis of variance (ANOVA) followed by Dunnett’s test, compared with the response of the WT). For dose-response experiments, data were normalized and analyzed using nonlinear curve fitting for the log (agonist) versus response (three parameters) curves.

[2] = target: T2, PTH1R I363A mutant (Homo sapiens, UniProt Q03431, I363A); test: cAMP accumulation assay (GloSensor), PTH1R I363A; assay type: cell-based
T2 construct: a flag-tag was fused to the N terminal of full-length PTH1R (WT or mutant); expressed in transfected cells; host or cells: HEK293T
T2 sequence (Q03431 27-593 I363A): T1 sequence (Q03431 27-593 K360A) with A334K, I337A
Procedure: as §1, §2

[3] = tested on: T3, PTH1R T178A mutant; test: cAMP accumulation assay (GloSensor), PTH1R T178A; assay type: cell-based, human
T3 construct: a flag-tag was fused to the N terminal of full-length PTH1R (WT or mutant); expressed in transfected cells; host or cells: HEK293T
Procedure: as §1, with “After” for “Human embryonic kidney 293 T (HEK293T, ATCC: CRL-1573) cells were transfected with a plasmid mixture consisting of pcDNA3.1-flag-PTH1R (WT or mutants) and the cAMP biosensor GloSensor-22F (Promega) at a ratio of 2:1 (see Supplementary Table 7 for a list of primers used in this study). After”
Statistical analyses were performed on at least three individual datasets and analysed using GraphPad Prism software. […] Data are mean± s.e.m. from at least three independent experiments, performed in triplicates. ns, not significant, ^nsP > 0.01; ^*P < 0.01; ^**P < 0.001; ^***P < 0.0001 (one-way analysis of variance (ANOVA) followed by Dunnett’s test, compared with the response of the WT). For dose-response experiments, data were normalized and analyzed using nonlinear curve fitting for the log (agonist) versus response (three parameters) curves.

Substance | span (from the WT) ([1]; PTH1R K3605.36A, replicate 1) | ΔpEC50 (from the WT) ([1]; PTH1R K3605.36A, replicate 1) | span (from the WT) ([1]; PTH1R K3605.36A, replicate 2) | ΔpEC50 (from the WT) ([1]; PTH1R K3605.36A, replicate 2) | span (from the WT) ([1]; PTH1R K3605.36A, replicate 3) | ΔpEC50 (from the WT) ([1]; PTH1R K3605.36A, replicate 3) | ΔpEC50±SEM [1] | ΔpEC50 (from the WT) ([1]; replicate 1) | ΔpEC50 (from the WT) ([1]; replicate 2) | ΔpEC50 (from the WT) ([1]; replicate 3) | Span±SEM [1] | span (from the WT) ([2]; PTH1R I3635.39A, replicate 1) | ΔpEC50 (from the WT) ([2]; PTH1R I3635.39A, replicate 1) | span (from the WT) ([2]; PTH1R I3635.39A, replicate 2) | ΔpEC50 (from the WT) ([2]; PTH1R I3635.39A, replicate 2) | span (from the WT) ([2]; PTH1R I3635.39A, replicate 3) | ΔpEC50±SEM [2] | ΔpEC50 (from the WT) ([2]; replicate 1) | ΔpEC50 (from the WT) ([2]; replicate 2) | ΔpEC50 (from the WT) ([2]; replicate 3) | other results
H-AVAEIQLMHQRAKWIQDARRRAFLHKLIAEIHTAEI-OH [LA-PTH, long-acting PTH analog, modified PTH/PTHrP hybrid] | 126.5 | 0.012 | 121.9 | 0.001 | 153.1 | -0.25 | -0.08±0.09 | 0.012 | 0.001 | -0.25 | 133.83±9.72 | 94.78 | -0.24 | 139.7 | -0.23 | 119.7 | -0.05±0.19 | -0.24 | -0.23 | 0.32 | Span±SEM [2]: 118.06±12.99; span (from the WT) ([3]; PTH1R T1781.30A, replicate 1): 104.1; ΔpEC50 (from the WT) ([3]; PTH1R T1781.30A, replicate 1): -0.079; span (from the WT) ([3]; PTH1R T1781.30A, replicate 2): 116.4; ΔpEC50 (from the WT) ([3]; PTH1R T1781.30A, replicate 2): 0; span (from the WT) ([3]; PTH1R T1781.30A, replicate 3): 180.3; ΔpEC50 (from the WT) ([3]; PTH1R T1781.30A, replicate 3): -0.07; ΔpEC50±SEM [3]: -0.05±0.02; ΔpEC50 (from the WT) ([3]; replicate 1): -0.079; ΔpEC50 (from the WT) ([3]; replicate 2): 0; ΔpEC50 (from the WT) ([3]; replicate 3): -0.07; Span±SEM [3]: 133.60±23.62
H-AVSEHQLLHDKGKSIQDLRRRELLEKLL-{Aib}-KLHTA-NH2 [ABL, Abaloparatide, an analog of PTHrP, short-acting PTH1R agonist] | 125.1 | -1.039 | 150.8 | -1.216 | 115 | -1.137 | -1.13±0.05 | -1.039 | -1.216 | -1.137 | 130.30±10.66 | 145.9 | -0.54 | 170 | -0.46 | 139.9 | -0.57±0.08 | -0.54 | -0.46 | -0.722 | ΔpEC50 (from the WT) ([2]; PTH1R I3635.39A, replicate 3): -0.722; Span±SEM [2]: 151.93±9.20; span (from the WT) ([3]; PTH1R T1781.30A, replicate 1): 120.4; ΔpEC50 (from the WT) ([3]; PTH1R T1781.30A, replicate 1): -0.829; span (from the WT) ([3]; PTH1R T1781.30A, replicate 2): 180.3; ΔpEC50 (from the WT) ([3]; PTH1R T1781.30A, replicate 2): -0.74; span (from the WT) ([3]; PTH1R T1781.30A, replicate 3): 96.78; ΔpEC50 (from the WT) ([3]; PTH1R T1781.30A, replicate 3): -0.62; ΔpEC50±SEM [3]: -0.73±0.06; ΔpEC50 (from the WT) ([3]; replicate 1): -0.829; ΔpEC50 (from the WT) ([3]; replicate 2): -0.74; ΔpEC50 (from the WT) ([3]; replicate 3): -0.62; Span±SEM [3]: 132.49±24.86
H-SVSEIQLMHNLGKHLNSMERVEWLRKKLQDVHNF-OH [PTH, Teriparatide, human PTH 1-34, long-acting peptide agonist of PTH1R] | 136.9 | 0.02 | 137.1 | -0.139 | 183.3 | -0.31 | -0.14±0.10 | 0.02 | -0.139 | -0.31 | 135.06±20.89 | 93.29 | -0.207 | 156.2 | -0.352 | 155.7 | -0.28±0.04 | -0.207 | -0.352 | -0.276 | ΔpEC50 (from the WT) ([2]; PTH1R I3635.39A, replicate 3): -0.276; Span±SEM [2]: 180.23±7.67; span (from the WT) ([3]; PTH1R T1781.30A, replicate 1): 113.4; ΔpEC50 (from the WT) ([3]; PTH1R T1781.30A, replicate 1): -0.148; span (from the WT) ([3]; PTH1R T1781.30A, replicate 2): 160.5; ΔpEC50 (from the WT) ([3]; PTH1R T1781.30A, replicate 2): -0.301; span (from the WT) ([3]; PTH1R T1781.30A, replicate 3): 167.8; ΔpEC50 (from the WT) ([3]; PTH1R T1781.30A, replicate 3): -0.188; ΔpEC50±SEM [3]: -0.21±0.05; ΔpEC50 (from the WT) ([3]; replicate 1): -0.148; ΔpEC50 (from the WT) ([3]; replicate 2): -0.301; ΔpEC50 (from the WT) ([3]; replicate 3): -0.188; Span±SEM [3]: 147.23±17.05
